Reference: patent EP4700027A1, “CRYSTALLINE FORM OF NITROGEN-CONTAINING TETRACYCLIC COMPOUND AND PREPARATION METHOD THEREFOR” (Jiangsu Hengrui Pharmaceuticals Co., Ltd., priority 2023, dated 2024)
Each block holds one compound with its values, some of them ahead of it.

Assay: Influencing factor stability study on crystal forms (light, high temperature, high humidity, 30 days)
Format: physicochemical
[1] = Light exposure (4500 Lux), 7 days
[2] = Light exposure (4500 Lux), 14 days
[3] = Light exposure (4500 Lux), 30 days

Color and state (40 °C, 7 days): Off-white solid
Crystal form (40 °C, 7 days): Did not change
Purity (%) (40 °C, 7 days): 98.2%
Color and state (40 °C, 14 days): Off-white solid
Crystal form (40 °C, 14 days): Did not change
Purity (%) (40 °C, 14 days): 98.1%
Color and state (40 °C, 30 days): Off-white solid
Crystal form (40 °C, 30 days): Did not change
Purity (%) (40 °C, 30 days): 97.7%
Color and state (60 °C, 7 days): Off-white solid
Crystal form (60 °C, 7 days): Did not change
Purity (%) (60 °C, 7 days): 98.3%
Color and state (60 °C, 14 days): Off-white solid
Crystal form (60 °C, 14 days): Did not change
Purity (%) (60 °C, 14 days): 98.2%
Color and state (60 °C, 30 days): Off-white solid
Crystal form (60 °C, 30 days): Did not change
Purity (%) (60 °C, 30 days): 97.7%
Color and state (75% RH, 7 days): Off-white solid
Crystal form (75% RH, 7 days): Did not change
Purity (%) (75% RH, 7 days): 98.4%
Color and state (75% RH, 14 days): Off-white solid
Crystal form (75% RH, 14 days): Did not change
Purity (%) (75% RH, 14 days): 98.3%
Color and state (75% RH, 30 days): Off-white solid
Crystal form (75% RH, 30 days): Did not change
Purity (%) (75% RH, 30 days): 98.4%
Color and state (92.5% RH, 7 days): Off-white solid
Crystal form (92.5% RH, 7 days): Did not change
Purity (%) (92.5% RH, 7 days): 98.3%
Color and state (92.5% RH, 14 days): Off-white solid
Crystal form (92.5% RH, 14 days): Did not change
Purity (%) (92.5% RH, 14 days): 98.3%
Color and state (92.5% RH, 30 days): Off-white solid
Crystal form (92.5% RH, 30 days): Did not change
Purity (%) (92.5% RH, 30 days): 98.3%
Color and state (Initial, 0 days): Off-white solid
Crystal form (Initial, 0 days): Crystal form H
Purity (%) (Initial, 0 days): 98.3%
Color and state [1]: Off-white solid
Crystal form [1]: Did not change
Purity (%) [1]: 97.8%
Color and state [2]: Off-white solid
Crystal form [2]: Did not change
Purity (%) [2]: 96.8%
Color and state [3]: Off-white solid
Crystal form [3]: Did not change
Purity (%) [3]: 94.0%
SMILES: C=CC(=O)N1CCN2C(=O)c3cc(F)c(-c4ccc(F)c5sc(N)c(C#N)c45)c4c(Cl)nn(c34)CC[C@H]2C1 [crystal form H]

Color and state (40 °C, 7 days): Off-white solid
Crystal form (40 °C, 7 days): Did not change
Purity (%) (40 °C, 7 days): 99.1%
Color and state (40 °C, 14 days): Off-white solid
Crystal form (40 °C, 14 days): Did not change
Purity (%) (40 °C, 14 days): 99.0%
Color and state (40 °C, 30 days): Off-white solid
Crystal form (40 °C, 30 days): Did not change
Purity (%) (40 °C, 30 days): 98.9%
Color and state (60 °C, 7 days): Off-white solid
Crystal form (60 °C, 7 days): Did not change
Purity (%) (60 °C, 7 days): 99.1%
Color and state (60 °C, 14 days): Off-white solid
Crystal form (60 °C, 14 days): Did not change
Purity (%) (60 °C, 14 days): 99.0%
Color and state (60 °C, 30 days): Off-white solid
Crystal form (60 °C, 30 days): Did not change
Purity (%) (60 °C, 30 days): 98.9%
Color and state (75% RH, 7 days): Off-white solid
Crystal form (75% RH, 7 days): Did not change
Purity (%) (75% RH, 7 days): 99.1%
Color and state (75% RH, 14 days): Off-white solid
Crystal form (75% RH, 14 days): Did not change
Purity (%) (75% RH, 14 days): 99.1%
Color and state (75% RH, 30 days): Off-white solid
Crystal form (75% RH, 30 days): Did not change
Purity (%) (75% RH, 30 days): 99.1%
Color and state (92.5% RH, 7 days): Off-white solid
Crystal form (92.5% RH, 7 days): Did not change
Purity (%) (92.5% RH, 7 days): 99.1%
Color and state (92.5% RH, 14 days): Off-white solid
Crystal form (92.5% RH, 14 days): Did not change
Purity (%) (92.5% RH, 14 days): 99.1%
Color and state (92.5% RH, 30 days): Off-white solid
Crystal form (92.5% RH, 30 days): Did not change
Purity (%) (92.5% RH, 30 days): 99.1%
Color and state (Initial, 0 days): Off-white solid
Crystal form (Initial, 0 days): Crystal form L
Purity (%) (Initial, 0 days): 99.1%
Color and state [1]: Off-white solid
Crystal form [1]: Did not change
Purity (%) [1]: 98.6%
Color and state [2]: Off-white solid
Crystal form [2]: Did not change
Purity (%) [2]: 98.2%
Color and state [3]: Off-white solid
Crystal form [3]: Did not change
Purity (%) [3]: 98.3%
SMILES: C=CC(=O)N1CCN2C(=O)c3cc(F)c(-c4ccc(F)c5sc(N)c(C#N)c45)c4c(Cl)nn(c34)CC[C@H]2C1 [crystal form L]
